What was measured:
[1] = biological target: T1, human FGFR3 V555M enzyme (cytoplasmic domain carrying V555M mutation) (Homo sapiens, UniProt P22607, V555M); experiment: FGFR3 V555M mobility shift assay (enzymatic assay); assay type: biochemical; details: 30 μM ATP, 45 minutes at 30° C., Caliper EZ reader II
T1 construct: human FGFR3 V555M enzyme (cytoplasmic domain carrying V555M mutation, from Carna Biosciences); purchased Carna Biosciences
Description: FGFR3 V555M Mobility Shift Assay (Enzymatic Assay)
(§1) In a final reaction volume of 25 μL, 0.04 ng/μL human FGFR3 V555M enzyme (cytoplasmic domain carrying V555M mutation, from Carna Biosciences) was incubated with 30 μM ATP, 1 μM FL-peptide 30 substrate and 250 nL of testing compound (1% DMSO final) in assay buffer (100 mM HEPES pH 7.4, 10 mM MgCl2, 0.003% Brij35, 1 mM DTT). After incubation for 45 minutes at 30° C. the reaction was stopped with 10 μL of 0.5M EDTA pH 8.0, and then 25 μL of reaction mixture was transferred to reading plate and measured on Caliper EZ reader II. The substrate-product conversion rate was used as raw data for normalization and concentration-response curve (10 dose points with 4× serial dilution, starting with 10 μM) was plotted using Prism to calculate IC50 (M), pIC50 (−log IC50) and HillSlope value.

[2] = biological target: T2, NIH/3T3 cells overexpressing FGFR3 WT-TACC3 fusion protein (Homo sapiens, UniProt P22607); experiment: NIH/3T3 FGFR3 WT-TACC3 cell proliferation assay; assay type: cell-based; details: 72-hr incubation, CellTiter Glo, starting with 10 μM; read-out: NIH/3T3 FGFR3 WT-TACC3 CTG (IC50)
T2 construct: NIH/3T3 FGFR3 WT-TACC3 CTG (IC50); other: 72-hr incubation, CellTiter Glo, starting with 10 μM; fused on or other part: Q9Y6A5 (Transforming acidic coiled-coil-containing protein 3)
Description: NIH/3T3 FGFR3 WT-TACC3 Cell Proliferation Assay
(§2) In day 1, 90 μL of cell suspension (NIH/3T3 cells overexpressing FGFR3 WT-TACC3 fusion protein) (total 30,000 cells per well in growth medium (DMEM containing 1% Glutamax, 10% FBS and 1% Pen/Strep)) was seeded in a 96-well plate and then incubated overnight at 37° C. and 5% CO2. In day 2, 10 μL of growth medium containing 10-fold stock solution of testing compound was added into cell cultures (9 dose points with 4× serial dilution, starting with 10 μM, 0.1% DMSO final). After 72-hr incubation at 37° C. and 5% CO2, in day 5 a volume of 50 μL CellTiter Glo (CTG) reagent was added into cell-containing 96-well plate and the plate was incubated at room temperature for 10 minutes before RLUs (relative light unit) were measured on a microplate reader with luminescence detection module. The RLU value was normalized to survival % and concentration-response curve was plotted using Prism to calculate IC50 (M), pIC50 (−log IC50) and HillSlope value.

[3] = biological target: T3, NIH/3T3 cells overexpressing FGFR3 V555M-TACC3 fusion protein (Homo sapiens, UniProt P22607, V555M, cells depend on it); experiment: NIH/3T3 FGFR3 V555M-TACC3 cell proliferation assay; assay type: cell-based; details: 72-hr incubation, CellTiter Glo, starting with 10 μM; read-out: NIH/3T3 FGFR3 V555M-TACC3 CTG (IC50)
T3 construct: NIH/3T3 FGFR3 V555M-TACC3 CTG (IC50); other: 72-hr incubation, CellTiter Glo, starting with 10 μM; fused on or other part: Q9Y6A5 (Transforming acidic coiled-coil-containing protein 3)
Description: NIH/3T3 FGFR3 V555M-TACC3 Cell Proliferation Assay
as §2, with “V555M-TACC3” for “WT-TACC3”

[4] = system: NIH/3T3 cells transfected with the same control vector; experiment: NIH/3T3 mock cell proliferation assay (counter assay, general toxicity); assay type: cell-based; details: Mus musculus, NIH3T3, 72 h, 72-hr incubation, CellTiter Glo, starting with 30 μM; counter assay for general toxicity; read-out: NIH/3T3 MOCK CTG (IC50)
Description: NIH/3T3 Mock Cell Proliferation Assay
as §2, with “cells transfected with the same control vector as in the above two proliferation assays)” for “cells overexpressing FGFR3 WT-TACC3 fusion protein)”, “with 3×” for “with 4×”, “with 30” for “with 10”, “μM, 0.3%” for “μM, 0.1%”

[5] = biological target: T4, human FGFR3 wild type enzyme (cytoplasmic domain) (Homo sapiens, UniProt P22607); experiment: FGFR3 wild type mobility shift assay (enzymatic assay); assay type: biochemical; details: 75 μM ATP, 50 minutes at 30° C., Caliper EZ reader II
T4 construct: human FGFR3 wild type enzyme (cytoplasmic domain, from Carna Biosciences); purchased Carna Biosciences
Description: FGFR3 Wild Type Mobility Shift Assay (Enzymatic Assay)
as §1, with “FGFR3 wild type” for “FGFR3 V555M”, “(cytoplasmic domain,” for “(cytoplasmic domain carrying V555M mutation,”, “with 75” for “with 30”, “for 50” for “for 45”

T1 sequence (P22607 397-806 V555M limits assumed): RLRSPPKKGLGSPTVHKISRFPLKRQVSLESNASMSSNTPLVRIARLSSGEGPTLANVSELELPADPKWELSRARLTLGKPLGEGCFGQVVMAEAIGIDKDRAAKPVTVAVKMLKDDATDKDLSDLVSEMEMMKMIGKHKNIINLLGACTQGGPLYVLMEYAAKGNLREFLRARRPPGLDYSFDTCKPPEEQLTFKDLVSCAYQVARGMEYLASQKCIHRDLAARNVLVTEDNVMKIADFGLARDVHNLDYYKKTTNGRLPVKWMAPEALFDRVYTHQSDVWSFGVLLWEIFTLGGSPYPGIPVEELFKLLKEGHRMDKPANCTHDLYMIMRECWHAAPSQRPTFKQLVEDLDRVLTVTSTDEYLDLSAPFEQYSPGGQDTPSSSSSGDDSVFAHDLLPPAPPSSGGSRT
T2 sequence (P22607 whole entry, change not shown, the tested form may be a part): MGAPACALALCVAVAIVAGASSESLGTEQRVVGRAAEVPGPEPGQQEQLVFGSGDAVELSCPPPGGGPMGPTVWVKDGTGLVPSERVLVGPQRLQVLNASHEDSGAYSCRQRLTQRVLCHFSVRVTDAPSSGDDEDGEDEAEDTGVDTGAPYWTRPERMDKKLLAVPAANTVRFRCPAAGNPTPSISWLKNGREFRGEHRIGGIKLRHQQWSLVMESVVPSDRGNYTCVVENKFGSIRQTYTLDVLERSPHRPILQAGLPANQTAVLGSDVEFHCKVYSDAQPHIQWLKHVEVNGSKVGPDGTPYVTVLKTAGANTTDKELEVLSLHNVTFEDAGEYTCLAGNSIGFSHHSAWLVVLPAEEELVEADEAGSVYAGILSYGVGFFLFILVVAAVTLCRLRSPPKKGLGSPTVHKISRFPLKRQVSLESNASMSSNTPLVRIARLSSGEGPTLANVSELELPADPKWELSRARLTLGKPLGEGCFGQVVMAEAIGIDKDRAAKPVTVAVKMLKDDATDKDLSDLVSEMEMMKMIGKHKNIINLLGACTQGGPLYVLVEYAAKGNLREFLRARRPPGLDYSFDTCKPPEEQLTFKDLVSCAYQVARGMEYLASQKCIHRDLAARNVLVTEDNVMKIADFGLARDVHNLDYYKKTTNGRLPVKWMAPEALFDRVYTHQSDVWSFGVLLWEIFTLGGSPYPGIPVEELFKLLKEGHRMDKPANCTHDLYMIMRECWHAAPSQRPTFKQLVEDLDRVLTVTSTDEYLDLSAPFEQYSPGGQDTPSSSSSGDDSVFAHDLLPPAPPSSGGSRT
T4 sequence (P22607 397-806 limits assumed): as the sequence (P22607 397-806 V555M limits assumed) above, with M159V counted along it
T3 sequence (P22607 whole entry V555M, the tested form may be a part): as the sequence (P22607 whole entry, change not shown, the tested form may be a part) above, with V555M counted along it

Row | Compound | IC50 [1] [nM] | GI50 [2] [nM] | GI50 [3] [nM] | IC50 [5] [nM] | IC50 [4] [nM]
1 | COC(=O)C1CCN(c2ccc3nc(-c4c(N[C@@H](C)c5ccccn5)c5ccccc5[nH]c4=O)[nH]c3c2)CC1 [Compound 7, (S)-Methyl-1-(2-(2-oxo-4-((1-(pyridin-2-yl)ethyl)amino)-1,2-dihydroquinolin-3-yl)-1H-benzo[d]imidazol-6-yl)piperidine-4-carboxylate] | 1.3 | 19.8 | 99.7 | 1.83 | 858
2 | CC(Nc1c(-c2nc3cc(C(F)(F)F)c(N4CCN(C)CC4)cc3[nH]2)c(=O)[nH]c2ccccc12)c1ncccn1 (single isomer, unassigned) [Compound 25a, (S*)-3-(6-(4-methylpiperazin-1-yl)-5-(trifluoromethyl)-1H-benzo[d]imidazol-2-yl)-4-((1-(pyrimidin-2-yl)ethyl)amino)quinolin-2(1H)-one] | 1.03 | 5.16 | 4.82 | 1.22 | 2260
3 | CC(Nc1c(-c2nc3ccc(N4CCN(C)CC4)cc3[nH]2)c(=O)[nH]c2ccccc12)c1cocn1 (single isomer, unassigned) [Compound 11a, (S*)-3-(6-(4-methylpiperazin-1-yl)-1H-benzo[d]imidazol-2-yl)-4-((1-(oxazol-4-yl)-ethyl)amino)quinolin-2(1H)-one] | 12 |  |  | 32.6 | 
4 | Cc1ccnc(C(C)Nc2c(-c3nc4ccc(N5CCOCC5)cc4[nH]3)c(=O)[nH]c3ccccc23)n1 (single isomer, unassigned) [Compound 34a, (S*)-4-((1-(4-methylpyrimidin-2-yl)ethyl)amino)-3-(6-morpholino-1H-benzo[d]imidazol-2-yl)quinolin-2(1H)-one] | 1.59 | 43.1 | 70.4 | 9 | 1320
5 | C[C@H](Nc1c(-c2nc3cc(C(F)(F)F)c(NC4CCN(C)CC4)cc3[nH]2)c(=O)[nH]c2ccccc12)c1ccccn1 [Compound 18, (S)-3-(6-((1-methylpiperidin-4-yl)amino)-5-(trifluoromethyl)-1H-benzo[d]imidazol-2-yl)-4-((1-(pyridin-2-yl)ethyl)amino)quinolin-2(1H)-one] | 1.35 | 56.8 | 87.8 | 1.35 | 733
6 | CC(Nc1c(-c2nc3cc(C(F)(F)F)c(N4CCC(C(=O)OC(C)(C)C)CC4)cc3[nH]2)c(=O)[nH]c2ccccc12)c1ncccn1 (single isomer, unassigned) [Compound 57, (S*)-tert-butyl 1-(2-(2-oxo-4-((1-(pyrimidin-2-yl)ethyl)amino)-1,2-dihydroquinolin-3-yl)-5-(trifluoromethyl)-1H-benzo[d]imidazol-6-yl)piperidine-4-carboxylate] | 19.2 |  |  | 61.9 | 
7 | CC(C)c1ccnc(C(C)Nc2c(-c3nc4ccc(N5CCOCC5)cc4[nH]3)c(=O)[nH]c3ccccc23)n1 (single isomer, unassigned) [Compound 49a, (S*)-4-((1-(4-isopropylpyrimidin-2-yl)ethyl)amino)-3-(6-morpholino-1H-benzo[d]-imidazol-2-yl)quinolin-2(1H)-one] | 7.07 |  |  | 27 | 
8 | C[C@H](Nc1c(-c2nc3ccc(N4CCOCC4)cc3[nH]2)c(=O)[nH]c2ccccc12)c1nccc(C2CC2)n1 (single isomer, unassigned) [Compound 50a, (S*)-4-((1-(4-cyclopropylpyrimidin-2-yl)ethyl)amino)-3-(6-morpholino-H-benzo[d]-imidazol-2-yl)quinolin-2(1H)-one] | 8.75 |  |  | 48.9 | 

Now from value to compound, other results behind:

Row | IC50 [1] [nM] | GI50 [2] [nM] | GI50 [3] [nM] | IC50 [5] [nM] | Compound | IC50 [4] [nM]
9 | 0.15 | 8.46 | 10.8 | 0.242 | CC(Nc1c(-c2nc3ccc(C4CCOCC4)cc3[nH]2)c(=O)[nH]c2ccccc12)c1ncccn1 (single isomer, unassigned) [Compound 29a, (S*)-4-((1-(pyrimidin-2-yl)ethyl)amino)-3-(6-(tetrahydro-2H-pyran-4-yl)-1H-benzo[d]-imidazol-2-yl)quinolin-2(1H)-one] | 4690
10 | 20.2 |  |  | 29.3 | CC(Nc1c(-c2nc3ccc(N4C[C@@H](C)O[C@H](C)C4)cc3[nH]2)c(=O)[nH]c2ccccc12)c1ncccn1 (single isomer, unassigned) [Compound 37b, 3-(6-((2R,6R)-2,6-dimethylmorpholino)-1H-benzo[d]imidazol-2-yl)-4-(((R*)-1-(pyrimidin-2-yl)ethyl)amino)quinolin-2(1H)-one] | 
11 | 15.3 |  |  | 35.2 | CC(Nc1c(-c2nc3ccc(-c4cnn(C)c4)cc3[nH]2)c(=O)[nH]c2ccccc12)c1ncccn1 (single isomer, unassigned) [Compound 53b, (R*)-3-(6-(1-methyl-1H-pyrazol-4-yl)-1H-benzo[d]imidazol-2-yl)-4-((1-(pyrimidin-2-yl)ethyl)amino)quinolin-2(1H)-one] | 
12 | 19.4 |  |  | 39.4 | CC(Nc1c(-c2nc3ccc(N4CCN(CCC(F)(F)F)CC4)cc3[nH]2)c(=O)[nH]c2ccccc12)c1ncccn1 (single isomer, unassigned) [Compound 41b, (R*)-4-((1-(pyrimidin-2-yl)ethyl)amino)-3-(6-(4-(3,3,3-trifluoropropyl)piperazin-1-yl)-1H-benzo[d]imidazol-2-yl)quinolin-2(1H)-one] | 

Reference: patent US11384075B2, “Quinolinone compounds” (Janssen Pharmaceutica NV, priority 2017, dated 2022)
